# Experimental data taken from publication PMC11984905, “Chiral Switch of Gadopiclenol: New Standards in MRI Probes” (Advanced Science, 2025).
# Assay: Stability and protonation constants of Cu(II)-complexes (spectrophotometry, pH-potentiometry)
# Format: physicochemical
# Conditions: 0.15 M NaCl, 25 °C
# Procedure: The stability constants of the Cu(II)‐complexes with rac‐L1, ent‐L1, rac‐L2 and ent‐L2 ligands were determined by spectrophotometry studying the Cu(II) – rac‐L1, Cu(II) – ent‐L1, Cu(II) – rac‐L2 and Cu(II) – ent‐L2 systems at the absorption band of Cu(II)‐complexes at [H^+] = 0.01–1.0 M in the wavelength range of 400–800 nm. The concentrations of CuCl2, rac‐L1, ent‐L1, rac‐L2 and ent‐L2 ligands were 0.002 M. The H^+ concentration in the samples was adjusted with the addition of calculated amounts of 3 M HCl. (I = [Na^+]+[H^+] = 0.15, [H^+]≤0.15 M). The samples were kept at 25 °C for a week. The absorbance values of the samples were determined at 11 wavelengths (575, 595, 615, 635, 655, 675, 695, 715, 735, 755, and 775 nm). For the calculations of the stability and protonation constants of the Cu(II)‐complexes, the molar absorptivities of CuCl2 and Cu(II)‐complexes were determined by recording the spectra of 1.0 × 10^−3, 1.5 × 10^−3, 2.0 × 10^−3, and 2.5 × 10^−3 M solutions of CuCl2 and Cu(II)‐complexes in the pH range of 1.7–7.5. The pH was adjusted by stepwise addition of concentrated NaOH or HCl solutions. The spectrophotometric measurements were made with a PerkinElmer Lambda 365 UV–vis spectrophotometer at 25 °C, using 1.0 cm cells.
# The stability and protonation constants of Cu(II) complexes with rac-L1, ent-L1, rac-L2 and ent-L2 have been determined by spectrophotometry. The equilibrium reaction (Equation (S8)) has been studied in the [H^+] range of 0.01 – 1.0 M (the ionic strength was constant I=[Na^+]+[H^+]=0.15 in the samples [H^+]≤0.15 M), where the formation of Cu^2+, CuHx-yL and HxL species was assumed ([Cu(rac-L1)]^4- and [Cu(ent-L1)]^4-: x=6 and 7, y=4 and 5; [Cu(rac-L2)]^4- and [Cu(ent-L2)]^4-: x=3 and 4, y=1 and 2).
# The protonation constants of Cu(II)-complexes with rac-L1, ent-L1, rac-L2 and ent-L2 have been determined by pH-potentiometric and spectrophotometric titrations of the complexes in the pH range 1.7 – 7.0. These studies reveal that [Cu(rac-L1)]^4- and [Cu(ent-L1)]^4- complexes can form mono-, di-, tri, tetra- and penta-protonated species via the protonation of all distant and two closer carboxylate groups of the pendant arms. Moreover, the pH potentiometric studies also indicate that the [Cu(rac-L2)]^- and [Cu(ent-L2)]^- complexes can form mono- and di-protonated species via the protonation of two carboxylate groups. […] Moreover, the maximum of the absorption band for the [Cu(H5L)]^+ species in Cu^2+ – ent-L1 system is also similar to that of [Cu(H2L)]^+ in Cu^2+ – ent-L2 system ([…], Figures S45 and S47). The maximum of the absorption band is shifted from 730 to 750 nm by the deprotonation of [Cu(H5L)]^+ and [Cu(H2L)]^+ via the formation of [Cu(H4L)] and [Cu(HL)] species in Cu^2+– rac-L1 and Cu^2+– rac-L2 systems (Figures S44 and S46).
SMILES,logK CuL,logKCuH2L,logKCuH3L,logKCuH4L,logKCuH5L,logKCuHL
"O=C(O)CCC(C(=O)O)N1CCN(C(CCC(=O)O)C(=O)O)Cc2cccc(n2)CN(C(CCC(=O)O)C(=O)O)CC1 (racemic) [rac‐L1, 2,2’,2’’-[3,6,9,15-tetraazabicyclo[9.3.1]pentadeca-1(15),11,13-triene-3,6,9-triyl]tripentanedioic acid]",23.26(4),4.80 (2),4.28 (2),3.69 (2),2.33 (2),5.38 (3)
O=C(CCC(C(=O)O)N1CCN(C(CCC(=O)NCC(O)CO)C(=O)O)Cc2cccc(n2)CN(C(CCC(=O)NCC(O)CO)C(=O)O)CC1)NCC(O)CO (racemic) [rac‐L2],21.04 (5),2.58 (5),,,,4.42 (4)
O=C(O)CCC(C(=O)O)N1CCN(C(CCC(=O)O)C(=O)O)Cc2cccc(n2)CN(C(CCC(=O)O)C(=O)O)CC1 (stereo not drawn) [ent‐L1],23.22 (6),4.72 (2),4.11 (2),3.36 (2),1.31 (2),5.25 (2)
O=C(CCC(C(=O)O)N1CCN(C(CCC(=O)NCC(O)CO)C(=O)O)Cc2cccc(n2)CN(C(CCC(=O)NCC(O)CO)C(=O)O)CC1)NCC(O)CO (stereo not drawn) [ent‐L2],21.52 (4),1.44 (1),,,,3.27 (1)
